Values of other authors as cited in patent US20170068777A1, “METHODS OF IDENTIFYING AND F[…] COMPOUNDS THAT MODULATE PHENOTYPE-RELATED TARGETS” (Tufts University, priority 2015, published 2017).

Settings: shown experimentally in the literature

SMILES | effect on TG levels
CC1(C)[C@@H](O)CC[C@]2(C)[C@H]3C(=O)C=C4[C@@H]5C[C@@](C)(C(=O)O)CC[C@]5(C)CC[C@@]4(C)[C@]3(C)CC[C@@H]12 [Glycyrrhetic acid] | lower TG levels
CC1(C(=O)O)CCC2(C)CCC3(C)C(=CCC4C5(C)CCC(O)C(C)(CO)C5CCC43C)C2C1 (centres unmarked) [Azukisapogenol] | lower TG levels
